Laboratory results: patent publication US20070112043A1, “Acylated and non-acylated imidazo[2,1-b]-1,3,4,-thiadiazole-2-sulfonamides, and uses thereof” (priority 2003, published 2007)
Converted amounts (≈) assume the structure as drawn. “And” between values parts separate entries of the source, which are not always exact repeats. Equal entries are not always repeated. Where two headings read alike, the source gives them in different places. Values belong to the molecule of their own block, whether it stands above or below them.

Experiments:
MDAMB231 (breast) = test: Clonogenic assay MDAMB231; assay type: cell-based; settings: compound 24 hours, colonies counted after 7-10 days, read-out: ED50 (the source's name)
Protocol: (§1) In this paradigm, Du145 prostate, HCT116 colon, 15N Neuroblastoma, IMR32 Neuroblastoma, Daoy Medulloblastoma, and MDAMB231 breast cells are individually plated and allowed to proliferate for 48 hours. Compound is added to the culture and left on for 24 hours, at which time both compound and dead cells are washed off the plate. Fresh media is added and the cells are allowed to grow for an additional 7-10 days. The remaining healthy cells reproduce and formed localized colonies. These colonies are counted and EC50 values are determined relative to non-treated controls.
(§2) Du145 prostate, HCT116 colon, 15N Neuroblastoma, IMR32 Neuroblastoma, Daoy Medulloblastoma, and MDAMB231 breast cells were plated in 6 well plates and allowed to grow for 5 days._Cells were exposed to compound for 24 hours, the culture media was removed and replaced with fresh media. The cells were kept in cultured for 7-10 days after which colonies were counted and EC50 values were determined relative to non-treated controls.

15 N (neuroblastoma) = test: Clonogenic assay 15N; assay type: cell-based; settings: compound 24 hours, colonies counted after 7-10 days, read-out: ED50 (the source's name)
Protocol: as §1, §2

RG neurons = settings: intra-vitrial injection or SC 10 mg/kg, cited from earlier work
SCG neurons = settings: cited from earlier work
15N neuroblastoma cells = test: Alamar blue viability assay, 15N neuroblastoma; assay type: cell-based; settings: for IC50: cellular viability after 48 hours, compound dissolved in DMSO
Protocol: In order to investigate the anti-cancer potential of compounds represented by formula I-a, 15N neuroblastoma cells lines were treated with compound and assayed for cellular viability after 48 hours. The cellular viability of 15N neuroblastomas treated with compounds 1, 5, 6, 11, and 13 (dissolved in DMSO) are summarized in Table 5 (see Compound 152).
Compounds were tested for anti-cancer properties using the Alamar blue viability assay. Daoy human medulloblastoma cells of 15N neuroblastoma cells were plated at a density of 5000 cells per well of a 96 well plate and cultured in RPMI media supplemented with antibiotics and 5% fetal bovine serum. Cells in culture were incubated with compound for 48 hours after which time Alamar blue was added to the culture media. After 4 hours media was transferred to opaque white plates and fluorescence of transformed alamar blue was measured at excitation 535/emission 595).

Daoy (medulloblastoma) = test: Clonogenic assay Daoy; assay type: cell-based, human; settings: compound 24 hours, colonies counted after 7-10 days, read-out: ED50 (the source's name)
Protocol: as §1, §2

[1] = Pharmacokinetics of primary sulfonamides and Na salts (oral, SC); assay type: in vivo; settings: gavage 10 mg/kg
Protocol: HPCD formulations of compounds represented by formula I also display improved pharmacokinetic properties as compared to compounds dissolved in water.
When compound 2 is administered at 10 mg/kg SC excellent plasma drug concentrations are observed_(Cmax=2.0 μg/mL, C1/2=0.8 hrs). […]

Microsomal stability = assay type: in vitro ADME; settings: 1 hr
Du145 (prostate) = test: Clonogenic assay Du145; assay type: cell-based; settings: compound 24 hours, colonies counted after 7-10 days, read-out: ED50 (the source's name)
Protocol: as §1, §2

Sprague Dawley rats = settings: 10 mg/kg, cited from earlier work
HCT116 (colon) = test: Clonogenic assay HCT116; assay type: cell-based; settings: compound 24 hours, colonies counted after 7-10 days, read-out: ED50 (the source's name)
Protocol: as §1, §2

IMR32 (neuroblastoma) = test: Clonogenic assay IMR32; assay type: cell-based; settings: compound 24 hours, colonies counted after 7-10 days, read-out: ED50 (the source's name)
Protocol: as §1, §2

[2] = system: motor neurons found in layer V of the cortex; settings: drug concentration 1 μM; malonate; P1 rat motor cortex slices; cited from earlier work
pH of formulation = assay type: physicochemical; settings: PBS/HPCD (25:75) solution
Excerpt: (§3) This is illustrated for compound 15 in Table 7.

[3] = Pharmacokinetics and in vivo conversion of N-acylsulfonamides in rats (SC); set-up: species or system rat; settings: subcutaneously, 10 mg/mL
Protocol: When administered to rats subcutaneously, compound 15 (10 mg/mL) is well distributed (Cmax=20 μg/mL in plasma). Conversion of compound 15 to 1 is observed with plasma levels of 1 reaching a Cmax of 0.5-1 μg/mL. Conversion of compound 16 to compound 1 is observed with plasma levels of 1 reaching a Cmax of 3 μg/mL Similar in vivo conversion is observed for select compounds listed in table 5 with whole blood drug concentrations being similar to that of their respective primary sulfonamide sodium salts, represented by formula I-a, administered at the same dose in aqueous 10 wt/vol % HPCD.

[4] = Conversion to primary sulfonamide in liver microsomes; assay type: in vitro ADME; settings: after 60 minutes
Protocol: (§4) Compound 15 is converted to compound 1 in the presence of liver microsomes using the procedure described by Cresteil, T., et al. (Cresteil, T., et al. Am. Soc. Pharm. Exper. Therapeutics, 2002, 30, 438-445). Upwards of 50% conversion is observed after 60 minutes. When incubated with rat primary hepatocytes, the conversion of compounds 15, 37, and 44 to their respective primary sulfonamides, 1, 11, and 13, is observed.

[5] = Conversion to primary sulfonamide in rat primary hepatocytes; assay type: in vitro ADME; settings: 90 minutes
Protocol: as §4

[6] = Stability of solutions/formulations; assay type: physicochemical
Excerpt: as §3

[7] = Solubility in water and formulations
Protocol: Alternatively, the sodium salt can be prepared in situ by dissolving the free acid in phosphate buffered saline (PBS) that has been buffered to a pH of 7.4. The solubility and stability of these solutions can be improved by the use of an aqueous soluble co-solvent such as, but not limited to HPCD. This solubility can be further improved by the addition of surfactants such as PEG 400. In general, the free acid is suspended in 10 wt/vol % HPDC (10 g dissolved in 100 mL water) and treated with 0.5M PBS (pH 7.4) such that the volumes are in a ratio of 75:25.

log P = assay type: physicochemical
[8] = Taxol induced cell death, read-out: Taxol SCG IC50
[9] = 250 μL 0.5 M PBS + 250 μL 10% HPCD + 500 μL 20% PEG 400

EC50 (MDAMB231 (breast)): > 5 µM | EC50 (15 N (neuroblastoma)): 7 µM | IC50 (15N neuroblastoma cells): ~20 µM and 20 µM | EC50 (Daoy (medulloblastoma)): > 5 µM | oral bioavailability ([1]; CMC/Tween 80 (semi-)suspension): moderate | Cmax ([1]; aqueous 0.5 wt/vol % CMC/0.5 wt/vol % Tween 80 (semi-)suspension): 200 ng/mL | Microsomal Stability (1 hr) (Microsomal stability): 90% | EC50 (Du145 (prostate)): 8 µM | EC50 (HCT116 (colon)): 12 µM
Compound: NS(=O)(=O)c1nn2cc(-c3ccccc3)nc2s1 [Compound 1]
histology of RG layer (RG neurons): healthy RG layers | electro-retinogram (ERG) (RG neurons; versus vehicle): significant improvements | IC50 (SCG neurons; [8]): 7 µM | IC50 (SCG neurons; anti-NGF induced cell death, read-out: anit-NGF SCG IC50): 22 µM | IC50 (SCG neurons; cisplatin induced cell death, read-out: cisplatin SCG IC50): 5 µM | IC50 (SCG neurons; vincristine induced cell death, read-out: vincristine SCG IC50): 10 µM | weight gain (Sprague Dawley rats; Taxol 9 mg/kg twice weekly for 3 weeks): normal weight gain | loss in foot pad contact (Sprague Dawley rats; Taxol alone 46% loss): 23%

EC50 (MDAMB231 (breast)): 1 µM | EC50 (15 N (neuroblastoma)): 0.75 µM | IC50 (15N neuroblastoma cells): 2 µM | EC50 (Daoy (medulloblastoma)): 1 µM | Microsomal Stability (1 hr) (Microsomal stability): 60% | EC50 (HCT116 (colon)): 1.5 µM
Compound: NS(=O)(=O)c1nn2cc(-c3ccc(-c4cccc(C(F)(F)F)c4)cc3)nc2s1 [Compound 11]
IC50 (SCG neurons; [8]): 2 µM | fold increase in activity over compound 1 (15N neuroblastoma cells; 15N neuroblastoma): 10 fold

EC50 (IMR32 (neuroblastoma)): 0.75 µM | IC50 (15N neuroblastoma cells): 10 µM | Microsomal Stability (1 hr) (Microsomal stability): 85% | EC50 (Du145 (prostate)): 8 µM
Compound: NS(=O)(=O)c1nn2cc(-c3ccc(Oc4ccc(Cl)cc4)cc3)nc2s1 [Compound 13]
IC50 (SCG neurons; [8]): 3 µM | protection of SMI-32 labeled motor neurons [2]: > 80%

pH (pH of formulation): 7.4 | Cmax in plasma [3]: 20000 ng/mL | conversion to compound 1 [4]: > 50% | conversion rate to primary sulfonamide [5]: 6% | Stability [6, 9]: >4 weeks | Stability ([6]; 1000 μL 0.5 M PBS): 1 to 2 days | Stability in 10 wt/vol HPCD ([6]; PBS/HPCD (25:75) solution): >4 weeks | dissolution ([7]; 25 mg in 1 mL PEG 400/ethanol (50:50) + ethanolamine (20 μL)): clear solution | clear solution concentration ([7]; 10 wt/vol % HPCD + 1 equiv of ethanolamine, dimethylaminoethanol or 4-aminopyridine): 5 to 10 mg/mL | solubility [7, 9]: 25000 µg/mL | solubility ([7]; 250 μL 0.5 M PBS + 750 μL 10% HPCD): 10000 µg/mL | Solubility in 10 wt/vol HPCD ([7]; PBS/HPCD (25:75) solution): 10000 µg/mL (≈ 31 mM) | log P (log P): 2.6
Compound: CC(=O)NS(=O)(=O)c1nn2cc(-c3ccccc3)nc2s1 [Compound 15]
